Test results reported in patent US20090318423A1, “Ion Channel Modulators & Uses Thereof” (LECTUS THERAPEUTICS LIMITED, priority 2006, published 2009).

Molecular target: T1, Kv1.1 alpha subunit T1 domain binding to Kvbeta1 subunits (Rattus norvegicus, UniProt P63144)
T1 construct: expression of Kv1.1 alpha subunit T1 domains in E. coli; His; made in house; host or cells: E. coli (cleared lysates)
T1 sequence (P63144 1-401): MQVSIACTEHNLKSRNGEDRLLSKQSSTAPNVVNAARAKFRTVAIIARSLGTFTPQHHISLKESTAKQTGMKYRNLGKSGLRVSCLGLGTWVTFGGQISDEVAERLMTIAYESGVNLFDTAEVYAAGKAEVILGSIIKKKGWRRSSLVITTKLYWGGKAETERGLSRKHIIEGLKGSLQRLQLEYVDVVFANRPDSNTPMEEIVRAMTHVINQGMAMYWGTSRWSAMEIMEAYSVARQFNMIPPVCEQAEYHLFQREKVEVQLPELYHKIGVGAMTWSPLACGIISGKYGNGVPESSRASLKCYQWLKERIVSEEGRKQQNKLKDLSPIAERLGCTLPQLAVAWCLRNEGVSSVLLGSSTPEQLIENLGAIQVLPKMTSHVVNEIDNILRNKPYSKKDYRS
Experiment: Kv1.x T1 / Kvbeta subunit protein-protein interaction assay (ELISA)
Conditions: His-/FLAG-tagged Kv1.1 T1 domain lysate; biotin-tagged Kvbeta1 immobilised on streptavidin plates; anti-FLAG/HRP ELISA detection; read-out: IC50 for inhibition of Kv1.1 alpha subunit T1 binding to Kvbeta1 subunits
Method: Compounds of Examples 3, 13-15 and 18-22 and 24-26 were examined for their ability to inhibit the interaction between Kv1.x channels and Kvbeta subunits using a protein-protein interaction assay.
Cloning of rat His- and biotin-tagged Kvbeta1 subunit cDNA, expression of Kvbeta1 subunits in E. coli and lysis of E. coli containing Kvbeta1 subunits were carried out as previously described (Kozlowski et al., patent application WO03078464).
Cloning of His- and FLAG-tagged Kv1.1 alpha subunit T1 domain cDNA, expression of Kv1.1 alpha subunit T1 domains in E. coli and lysis of E. coli containing Kv1.1 alpha subunit T1 domains were carried out as previously described (Kozlowski et al., patent application WO03078464).
To 96-well streptavidin coated microtitre plates, 100 μl of optimized concentrations of Kvbeta1 subunit cleared lysates (typically 1 in 10 dilutions in PBS-Tween) were added to each well. Plates were incubated at room temperature for 1 hour prior to use. Each well was then washed 3 times with 300 μl of PBS-Tween. Following the final wash, 80 μl of PBS-Tween was added to each well.
The test compounds (dissolved in a suitable vehicle) were added to the wells of a prepared 96-well microliter plate to achieve a range of concentrations to maintain a final assay volume of 100 μl. Plates were incubated for 30 minutes at room temperature.
After incubation with test compounds, 100 μl of Kv1.1 alpha subunit T1 domain cleared lysate (diluted 1 in 10 in PBS-Tween) was added to each well and incubated for 60 minutes at room temperature on a shaker. Unbound Kv1.1 alpha subunit T1 domain was removed by washing 3 times in 300 μl of PBS-Tween. Bound Kv1.1 alpha subunit T1 domain was estimated by using appropriately diluted mouse anti-FLAG antibody and anti-mouse IgG secondary antibody HRP conjugate using standard ELISA procedures. HRP was detected as previously described (Kozlowski et al., patent application WO03078464).
Data were analyzed using standard software packages. The test compounds were examined for their ability to inhibit the binding of Kv1.1 alpha subunit T1 domain to Kvbeta1 subunits to determine inhibition as a percentage of maximal binding in the absence of any test compound. Results are presented as the half maximal inhibitory concentration (IC50) for inhibition of Kv1.1 alpha subunit T1 binding to Kvbeta1 subunits.

Point of comparison: `Cc1ccc(S(=O)(=O)NC(=O)N2CCc3ccc(NS(=O)(=O)c4ccc(C)cc4)cc3CC2)cc1` [Example 24, N-[(4-Methylphenyl)sulfonyl]-7-([(4-methylphenyl)sulfonyl]amino)-1,2,4,5-tetrahydro-3H-3-benzazepine-3-carboxamide], IC50 81 µM. Against it:
- Cc1ccc(S(=O)(=O)NC(=O)Nc2ccc3c(c2)CCN(C(=O)NS(=O)(=O)c2ccc(C)cc2)C3)cc1 [Example 13, N-[(4-methylphenyl)sulfonyl]-6-({[(4-methylphenyl)sulfonyl]-carbamoyl}amino)-3,4-dihydroisoquinoline-2(1H)-carboxamide] — 2.7-fold lower, 30 µM
- Cc1ccc(S(=O)(=O)NC(=O)Nc2ccc3c(c2)CN(C(=O)NS(=O)(=O)c2ccc(C)cc2)C3)cc1 [Example 14, N-[(4-methylphenyl)sulfonyl]-5-[({[(4-methylphenyl)sulfonyl]amino}carbonyl)amino]-1,3-dihydro-2H-isoindole-2-carboxamide] — 5.1-fold lower, 16 µM
- Cc1ccc(S(=O)(=O)NC(=O)Nc2ccc3c(c2)CCN(C(=O)NS(=O)(=O)c2ccc(C)cc2)CC3)cc1 [Example 15, N-[(4-Methylphenyl)sulfonyl]-7-({[(4-methylphenyl)sulfonyl]carbamoyl}amino)-1,2,4,5-tetrahydro-3H-3-benzazepine-3-carboxamide] — within 1.5-fold, 59 µM
- Cc1cccc(S(=O)(=O)NC(=O)Nc2ccc3c(c2)CCN(C(=O)NS(=O)(=O)c2cccc(C)c2)CC3)c1 [Example 17, N-[(3-Methylphenyl)sulfonyl]-7-({[(3-methylphenyl)sulfonyl]carbamoyl}amino)-1,2,4,5-tetrahydro-3H-3-benzazepine-3-carboxamide] — 1.7-fold lower, 47 µM
- O=C(Nc1ccc2c(c1)CCN(C(=O)NS(=O)(=O)c1ccccc1Cl)CC2)NS(=O)(=O)c1ccccc1Cl [Example 18, N-[(2-Chlorophenyl)sulfonyl]-7-({[(2-chlorophenyl)sulfonyl]carbamoyl}amino)-1,2,4,5-tetrahydro-3H-3-benzazepine-3-carboxamide] — 2.2-fold higher, 181 µM
- O=C(Nc1ccc2c(c1)CCN(C(=O)NS(=O)(=O)c1ccc(Cl)cc1)CC2)NS(=O)(=O)c1ccc(Cl)cc1 [Example 19, N-[(4-Chlorophenyl)sulfonyl]-7-({[(4-chlorophenyl)sulfonyl]carbamoyl}amino)-1,2,4,5-tetrahydro-3H-3-benzazepine-3-carboxamide] — 1.6-fold lower, 51 µM
- O=C(Nc1ccc2c(c1)CCN(C(=O)NS(=O)(=O)c1ccc(F)cc1)CC2)NS(=O)(=O)c1ccc(F)cc1 [Example 20, N-[(4-Fluorophenyl)sulfonyl]-7-({[(4-fluorophenyl)sulfonyl]carbamoyl}amino)-1,2,4,5-tetrahydro-3H-3-benzazepine-3-carboxamide] — 2.4-fold higher, 191 µM
- COc1ccc(S(=O)(=O)NC(=O)Nc2ccc3c(c2)CCN(C(=O)NS(=O)(=O)c2ccc(OC)cc2)CC3)cc1 [Example 21, N-[(4-Methoxyphenyl)sulfonyl]-7-({[(4-methoxyphenyl)sulfonyl]-carbamoyl}amino)-1,2,4,5-tetrahydro-3H-3-benzazepine-3-carboxamide] — 2.1-fold lower, 38 µM
- CC(C)(C)c1ccc(S(=O)(=O)NC(=O)Nc2ccc3c(c2)CCN(C(=O)NS(=O)(=O)c2ccc(C(C)(C)C)cc2)CC3)cc1 [Example 22, N-[(4-tert-Butylphenyl)sulfonyl]-7-({[(4-tert-butylphenyl)sulfonyl]carbamoyl}-amino)-1,2,4,5-tetrahydro-3H-3-benzazepine-3-carboxamide] — 2-fold lower, 41 µM
- Cc1ccc(S(=O)(=O)NC(=O)N2CCc3ccc(NS(=O)(=O)c4ccc(-c5ccccc5)cc4)cc3CC2)cc1 [Example 25, N-[(4-Methylphenyl)sulfonyl]-7-([(4-biphenyl)sulfonyl]amino)-1,2,4,5-tetrahydro-3H-3-benzazepine-3-carboxamide] — within 1.5-fold, 88 µM
- N-benzylaminocarbonyl-7-[({[(4-methylphenyl)sulfonyl]amino}carbonyl)amino]-1,2,4,5-tetrahydro-3H-3-benzazepine-3-carboxamide [Example 3] — 1.6-fold lower, 50 µM
